The text below walks through data of patent US12319684B2 (Sanford Burnham Prebys Medical Discovery Institute, priority 2014, dated 2025).

Each structure is given as a SMILES string. Like-named read-outs stand apart in the source and are kept apart here. A value given as a limit tells only on which side of the number the result lay.

The target in the experiment is T1, human apelin receptor (APJ, AGTRL-1, APLNR) (Homo sapiens, UniProt P35414).
T1 construct: host or cells: Chinese hamster ovary cells
T1 sequence (P35414 1-380): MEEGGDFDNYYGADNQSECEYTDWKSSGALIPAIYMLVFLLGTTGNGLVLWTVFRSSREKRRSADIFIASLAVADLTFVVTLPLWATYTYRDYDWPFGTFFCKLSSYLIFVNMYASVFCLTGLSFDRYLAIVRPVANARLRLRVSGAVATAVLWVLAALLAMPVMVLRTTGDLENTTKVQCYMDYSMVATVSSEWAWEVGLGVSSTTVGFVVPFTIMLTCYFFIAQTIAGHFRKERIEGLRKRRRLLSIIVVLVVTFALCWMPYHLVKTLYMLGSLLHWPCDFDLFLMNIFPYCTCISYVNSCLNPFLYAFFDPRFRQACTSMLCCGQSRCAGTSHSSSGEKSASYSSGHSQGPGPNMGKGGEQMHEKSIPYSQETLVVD
The experiment can be described thus: APJ cAMP cell-based assay (forskolin-stimulated CHO cells, enzyme fragment complementation). The conditions noted are these: for Emax: CHO, 0.5 h, read-out: APJ cAMP % resp (efficacy). The method, then: The assays disclosed herein were performed using cell lines from DiscoveRx, Inc.
Biological activity was determined in a cell-based assay. This assay detects activation of the receptor by reporting on intracellular cyclic adenosine monophosphate (cAMP) level. Chinese hamster ovary cells engineered to express a stably integrated human apelin receptor (APJ, AGTRL-1, APLNR), were plated into the wells of a microtiter plate. Cells were stimulated with forskolin to increase intracellular cAMP. Immediately following, compounds were added at a range of final concentrations 0.0-100 μM, in DMSO (not to exceed a final DMSO concentration of >1% v/v), and allowed to incubate with the cells for 0.5 h. At the end of the incubation, cells were lysed to stop APJ signaling, and cAMP was quantified using a commercially available assay kit that applies enzyme fragment complementation technology and bioluminescence, in a competitive ELISA format.
Compound efficacy (% resp) is reported as a percentage of the maximal apelin-13 response at 1 nM (control).

The mark [1] stands for this setting: CHO cells expressing human APJ, forskolin-stimulated, 0.5 h incubation, 50% of control (apelin-13, 1 nM) response, read-out: APJ cAMP EC50.
Setting [2] is: percentage of the maximal apelin-13 response at 1 nM (control).

As usually defined, the EC50 is the midpoint of the concentration-response curve. With `COc1ccccc1-n1c(SCc2ccc([N+](=O)[O-])cc2)nnc1-c1cccs1` [Example 72, 4-(2-Methoxy-phenyl)-3-(4-nitro-benzylsulfanyl)-5-thiophen-2-yl-4H-[1,2,4]triazole], under setting [1], the EC50 was 140 nM. In addition, the Emax under setting [2] is 106%.
In the same order, the values of `COc1ccccc1-n1c(SCc2ccc3ccccc3n2)nnc1-c1cccs1` [Example 68, 2-[4-(2-Methoxy-phenyl)-5-thiophen-2-yl-4H-[1,2,4]triazol-3-ylsulfanylmethyl]-quinoline] are 211 nM and 79%.
For `COc1ccccc1-n1c(SCc2coc(-c3ccc(C(F)(F)F)cc3)n2)nnc1-c1cccs1` [Example 38, 4-(2-Methoxy-phenyl)-3-thiophen-2-yl-5-[2-(4-trifluoromethyl-phenyl)-oxazol-4-ylmethylsulfanyl]-4H-[1,2,4]triazole], in that order: over 10000 nM and 18%.
For `COc1ccccc1-n1c(SCc2cc(=O)n3cc(C)ccc3n2)nnc1-c1cccs1` [Example 48, 2-[4-(2-Methoxy-phenyl)-5-thiophen-2-yl-4H-[1,2,4]triazol-3-ylsulfanylmethyl]-7-methyl-pyrido[1,2-a]pyrimidin-4-one], in that order: 28 nM and 103%.
`COc1ccc(-n2c(SCc3cc(=O)n4cc(C)ccc4n3)nnc2-c2cccs2)cn1` [Example 30]: under setting [1], the half-maximal effective concentration (EC50) was over 10000 nM. For the same molecule, the Emax under setting [2] amounted to 31%.
For `COc1ccccc1-n1c(SCc2coc(-c3ccc(OC(F)(F)F)cc3)n2)nnc1-c1cccs1` [Example 43, 4-(2-Methoxy-phenyl)-3-thiophen-2-yl-5-[2-(4-trifluoromethoxy-phenyl)-oxazol-4-ylmethylsulfanyl]-4H-[1,2,4]triazole], in that order: 3890 nM and 102%.
In the same order, the values of `COc1ccccc1-n1c(SCc2cc(=O)n3cc(C)ccc3n2)nnc1-c1ccc(C)o1` [Example 15, 2-[4-(2-Methoxy-phenyl)-5-(5-methyl-furan-2-yl)-4H-[1,2,4]triazol-3-ylsulfanylmethyl]-7-methyl-pyrido[1,2-a]pyrimidin-4-one] are 4.44 nM and 52%.
In the same order, the values of `COc1ccccc1-n1c(SCc2cc(=O)n3cc(C)ccc3n2)nnc1-c1ccccc1` [Example 3, 2-[4-(2-Methoxy-phenyl)-5-phenyl-4H-[1,2,4]triazol-3-ylsulfanylmethyl]-7-methyl-pyrido[1,2-a]pyrimidin-4-one] are 6160 nM and 136%.
For `COc1ccccc1-n1c(SCc2coc(-c3ccc(C)cc3)n2)nnc1-c1cccs1` [Example 41, 4-(2-Methoxy-phenyl)-3-thiophen-2-yl-5-(2-p-tolyl-oxazol-4-ylmethylsulfanyl)-4H-[1,2,4]triazole], the EC50 under setting [1] is 2490 nM. Under setting [2], the Emax was determined as 58%.
For `COc1ccccc1-n1c(SCc2cc(=O)n3cc(C)ccc3n2)nnc1-c1ccc([N+](=O)[O-])cc1` [Example 7, 2-[4-(2-Methoxy-phenyl)-5-(4-nitro-phenyl)-4H-[1,2,4]triazol-3-ylsulfanylmethyl]-7-methyl-pyrido[1,2-a]pyrimidin-4-one], in that order: 6630 nM and 51%.
For `COc1ccccc1-n1c(SCc2csc(-c3ccc(F)cc3)n2)nnc1-c1cccs1` [Example 33, 3-[2-(4-Fluoro-phenyl)-thiazol-4-ylmethylsulfanyl]-4-(2-methoxy-phenyl)-5-thiophen-2-yl-4H-[1,2,4]triazole], in that order: 1170 nM and 80%.
For `COc1ccccc1-n1c(SCc2nc(=O)c3cc(C)ccc3[nH]2)nnc1-c1cccs1` [Example 59, 2-[4-(2-Methoxy-phenyl)-5-thiophen-2-yl-4H-[1,2,4]triazol-3-ylsulfanylmethyl]-6-methyl-1H-quinazolin-4-one], in that order: 42 nM and 121%.
On to `COc1ccccc1-n1c(SCc2cc(=O)n3cc(C)ccc3n2)nnc1-c1nccs1` [Example 14, 2-[4-(2-Methoxy-phenyl)-5-thiazol-2-yl-4H-[1,2,4]triazol-3-ylsulfanylmethyl]-7-methyl-pyrido[1,2-a]pyrimidin-4-one], for which the EC50 under setting [1] turned out to be 772 nM. The Emax under setting [2] was 105%.
As for `COc1ccccc1-n1c(SCc2ccncn2)nnc1-c1cccs1` [Example 78, 4-[4-(2-Methoxy-phenyl)-5-thiophen-2-yl-4H-[1,2,4]triazol-3-ylsulfanylmethyl]-pyrimidine], the EC50 is over 10000 nM and the Emax was found to be 50%.
For the molecule `COc1ccccc1-n1c(SCc2nc(=O)c3cccc(C)c3[nH]2)nnc1-c1cccs1` [Example 58, 2-[4-(2-Methoxy-phenyl)-5-thiophen-2-yl-4H-[1,2,4]triazol-3-ylsulfanylmethyl]-8-methyl-1H-quinazolin-4-one], the EC50 under setting [1] is 547 nM. Besides, the Emax under setting [2] was found to be 134%.
For `COc1ccccc1-n1c(SCc2nc(=O)c3cc(Cl)ccc3[nH]2)nnc1-c1cccs1` [Example 62, 6-Chloro-2-[4-(2-methoxy-phenyl)-5-thiophen-2-yl-4H-[1,2,4]triazol-3-ylsulfanylmethyl]-1H-quinazolin-4-one], in that order: 53.6 nM and 116%.
In the case of `COc1ccccc1-n1c(NCc2csc(-c3ccc(C)cc3)n2)nnc1-c1cccs1` [Example 86, [4-(2-Methoxy-phenyl)-5-thiophen-2-yl-4H-[1,2,4]triazol-3-yl]-(2-p-tolyl-thiazol-4-ylmethyl)-amine], the EC50 under setting [1] was over 10000 nM.
Take `COc1ccccc1-n1c(SCc2nc(=O)c3cc(Br)ccc3[nH]2)nnc1-c1cccs1` [Example 61, 6-Bromo-2-[4-(2-methoxy-phenyl)-5-thiophen-2-yl-4H-[1,2,4]triazol-3-ylsulfanylmethyl]-1H-quinazolin-4-one]: the EC50 under setting [1] was 31.5 nM. In addition, the Emax under setting [2] is 80%.
For `COc1ccccc1-n1c(SCc2cc(F)cc(F)c2)nnc1-c1cccs1` [Example 77, 3-(3,5-Difluoro-benzylsulfanyl)-4-(2-methoxy-phenyl)-5-thiophen-2-yl-4H-[1,2,4]triazole], in that order: 8440 nM and 111%.
For `COc1ccccc1-n1c(SCc2cc(=O)n3cc(Cl)ccc3n2)nnc1-c1cccs1` [Example 50, 7-Chloro-2-[4-(2-methoxy-phenyl)-5-thiophen-2-yl-4H-[1,2,4]triazol-3-ylsulfanylmethyl]-pyrido[1,2-a]pyrimidin-4-one], in that order: 6.74 nM and 110%.
In the same order, the values of `COc1ccccc1-n1c(SCc2cc(=O)n3cc(C)ccc3n2)nnc1-c1ccc(Cl)s1` [Example 9, 2-[5-(5-Chloro-thiophen-2-yl)-4-(2-methoxy-phenyl)-4H-[1,2,4]triazol-3-ylsulfanylmethyl]-7-methyl-pyrido[1,2-a]pyrimidin-4-one] are 455 nM and 136%.
Consider `COc1ccccc1-n1c(SCc2nc(=O)c3cccc(F)c3[nH]2)nnc1-c1cccs1` [Example 57, 8-Fluoro-2-[4-(2-methoxy-phenyl)-5-thiophen-2-yl-4H-[1,2,4]triazol-3-ylsulfanylmethyl]-1H-quinazolin-4-one], for which the Emax turned out to be 106%. Besides, the EC50 under setting [1] was found to be 140 nM.
On to `COc1ccccc1-n1c(SCc2coc(-c3ccc(Br)cc3)n2)nnc1-c1cccs1` [Example 42, 3-[2-(4-Bromo-phenyl)-oxazol-4-ylmethylsulfanyl]-4-(2-methoxy-phenyl)-5-thiophen-2-yl-4H-[1,2,4]triazole], for which the EC50 under setting [1] was over 10000 nM. The Emax under setting [2] stood at 33%.
For `COc1ccccc1-n1c(SCc2coc(-c3ccc(Cl)cc3)n2)nnc1-c1cccs1` [Example 40, 3-[2-(4-Chloro-phenyl)-oxazol-4-ylmethylsulfanyl]-4-(2-methoxy-phenyl)-5-thiophen-2-yl-4H-[1,2,4]triazole], in that order: 3340 nM and 58%.
For `COc1ccccc1-n1c(SCc2cc(=O)n3c(C)cccc3n2)nnc1-c1cccs1` [Example 44, 2-[4-(2-Methoxy-phenyl)-5-thiophen-2-yl-4H-[1,2,4]triazol-3-ylsulfanylmethyl]-6-methyl-pyrido[1,2-a]pyrimidin-4-one], the EC50 was found to be 9.8 nM and the Emax is 119%.
`Cc1ccc2nc(CSc3nnc(-c4cccs4)n3-c3ccc(OC(F)(F)F)cc3)cc(=O)n2c1` [Example 25, 7-Methyl-2-[5-thiophen-2-yl-4-(4-trifluoromethoxy-phenyl)-4H-[1,2,4]triazol-3-ylsulfanylmethyl]-pyrido[1,2-a]pyrimidin-4-one]: under setting [1], the EC50 was over 10000 nM. Under setting [2], the Emax worked out at 52%.
